According to patent publication US20100111965A1, “COMBINATION THERAPY” (FUSION ANTIBODIES LIMITED, priority 2006, published 2010):

Key:
HCT116 cells = experiment: FACS analysis of cell surface AREG in HCT116 with or without irinotecan; assay type: cell-based, human; conditions: 2.5 μM for 48 hours; HCT116 and H460 analysed, cell line not given
Protocol: (§1) Following treatment cells were stained with AREG monoclonal antibodies and analysed by FACS
(§2) After 48 hours cells were washed in PBS and blocked for 20 minutes in Normal Goat Serum. 5×10^5 cells were incubated with AREG antibodies or isotype control for 2 hours and washed in PBS-T. The cells were incubated with a FITC conjugated goat anti-mouse antibody for 1 hour and washed in PBS-T before analysis on BD FACS canto.

[1] = tested on: H460 lung carcinoma cell line; experiment: FACS analysis of cell surface AREG in H460 with or without irinotecan; assay type: cell-based; conditions: 2.5 μM for 48 hours
Protocol: as §1, §2

[2] = tested on: H630 p53 mutant colorectal cancer cell; experiment: Western blot of AREG protein in H630 p53 mutant lysates after chemotherapy; assay type: cell-based, human; conditions: 48 hour treatment, two separate experiments
Protocol: FIG. 4 illustrates analysis of AREG protein 14, expression in H630 p53 mutant colorectal cancer cell lysates following a 48 hour CPT11 treatment. Western blots were probed using an anti-amphiregulin antibody. […] HCT 116, RKO, HT 29 and H630 are human colorectal carcinoma cell lines. After different time exposure to chemotherapy the cells were harvested, and washed in 1×PBS. The cell pellet was then lysed in a suitable amount of 1×RIPA lysis buffer (150 mM NaCl, 10 mM Tris at pH 7.2, 0.1% SDS, 1.0% triton X-100 and 5 mM.EDTA) supplemented with protease inhibitors. The cell lysate was briefly vortexed, incubated on ice for 10 min and then centrifuged at 12,000 rpm to remove cell debris. Following centrifugation, the lysate supernatant was removed to a fresh eppendorf tube. Protein concentrations were assayed using the BCA Protein Assay (Pierce) according to the manufacturer's instructions. The absorbance of each sample at 620 nm was assayed using a microplate reader. A standard BSA curve was plotted for each experiment and the protein concentration of each sample calculated. To each sample an equal volume of 5× Western sample buffer and 10% of the final volume of β-mercaptoethanol (Sigma) was added. […] Protein bands were detected by exposure to autoradiograph which was subsequently developed. […]

`CCc1c2c(nc3ccc(OC(=O)N4CCC(N5CCCCC5)CC4)cc13)-c1cc3c(c(=O)n1C2)COC(=O)[C@]3(O)CC` [CPT-11, irinotecan] was tested, and the “increase in the cell surface expression of AREG (FACS)” value (HCT116 cells) was ≤ 40%, the “AREG surface expression levels (FACS), detected by clones 3H5 and 3F8” value [1] was “up-regulation in expression levels” and the “AREG protein expression (western blot)” value [2] was “Enhanced AREG expression”.
